# ± gives the expanded uncertainty stated by the source.
# Assays:
# [1] = refractive index (Na D-line) (dimensionless); conditions: 101.33 kPa, Liquid, Standard Abbe refractometry
# [2] = 101.33 kPa, Liquid, Vibrating tube method
refractive index ([1]; 298.15 K),refractive index ([1]; 303.15 K),refractive index ([1]; 308.15 K),refractive index ([1]; 313.15 K),mass density ([2]; 298.15 K),mass density ([2]; 303.15 K),mass density ([2]; 308.15 K),mass density ([2]; 313.15 K),Compound
1.52 ± 0.002,1.519 ± 0.002,1.517 ± 0.002,1.517 ± 0.002,1260.26 ± 1.1 kg/m3,1257.2 ± 1.1 kg/m3,1254.1 ± 1.1 kg/m3,1250.77 ± 1.1 kg/m3,CCCCn1cc[n+](C)c1.NCC(=O)[O-] [1-butyl-3-methylimidazolium glycinate]
1.397 ± 0.002,1.395 ± 0.002,1.393 ± 0.002,1.391 ± 0.002,806 ± 1 kg/m3,802.4 ± 1 kg/m3,798.2 ± 1 kg/m3,794.6 ± 1 kg/m3,CCCCO [butan-1-ol]
1.375 ± 0.002,1.374 ± 0.002,1.373 ± 0.002,1.372 ± 0.002,781.2 ± 1 kg/m3,774 ± 1 kg/m3,765.8 ± 1 kg/m3,757.2 ± 1 kg/m3,CC(C)O [propan-2-ol]

# Reference: the NIST ThermoML archive (doi:10.1021/je200030k)
